Test results as given in PubChem BioAssay (NCI).
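Values below derive from 48-hour exposures of cells grown in 96-well plates, with endpoints linearly interpolated between the two concentrations bracketing the appropriate inhibition level. GI50 marks 50% less growth. Definition used: TGI = concentration required for complete inhibition of growth.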

How the values were obtained:
Test in all cases: NCI-60 cell line screen, 48 h
[1] = system: 786-0 renal
[2] = system: A498 renal
[3] = system: A549 NSCLC
[4] = system: ACHN renal
[5] = system: BT-549 breast
[6] = system: CAKI-1 renal
[7] = system: COLO 205 colon
[8] = system: DU-145 prostate
[9] = system: EKVX NSCLC
[10] = system: HCT-116 colon
[11] = system: HCT-15 colon
[12] = system: HOP-62 NSCLC
[13] = system: HS 578T breast
[14] = system: K-562 leukemia
[15] = system: KM12 colon
[16] = system: M14 melanoma
[17] = system: MCF7 breast
[18] = system: MDA-MB-231 breast
[19] = system: MDA-MB-435
[20] = system: MDA-N
[21] = system: MOLT-4 leukemia
[22] = system: NCI-H23 lung
[23] = system: NCI-H460 lung
[24] = system: NCI-H522 lung
[25] = system: NCI/ADR-RES ovarian
[26] = system: OVCAR-3 ovarian
[27] = system: OVCAR-4 ovarian
[28] = system: OVCAR-5 ovarian
[29] = system: OVCAR-8 ovarian
[30] = system: PC-3 prostate
[31] = system: RPMI-8226 leukemia
[32] = system: RXF 393 renal
[33] = system: SF-268 CNS
[34] = system: SF-295 CNS
[35] = system: SF-539 CNS
[36] = system: SK-MEL-2 melanoma
[37] = system: SK-MEL-28 melanoma
[38] = system: SK-MEL-5 melanoma
[39] = system: SK-OV-3 ovarian
[40] = system: SN12C renal
[41] = system: SNB-19 CNS
[42] = system: SNB-75 CNS
[43] = system: SW-620 colon
[44] = system: T-47D breast
[45] = system: TK-10 renal
[46] = system: U251 CNS
[47] = system: UACC-257 melanoma
[48] = system: UACC-62 melanoma
[49] = system: UO-31 renal
[50] = system: HCC-2998 colon
[51] = system: HOP-92 NSCLC
[52] = system: HT29 colon
[53] = system: IGROV1 ovarian
[54] = system: NCI-H226 lung
[55] = system: CCRF-CEM leukemia
[56] = system: HL-60(TB) leukemia
[57] = system: LOX IMVI melanoma
[58] = system: MALME-3M melanoma
[59] = system: SR leukemia

Work on `CCCCCCCCCc1nn2c(Cc3ccccc3)nnc2s1` yielded a TGI [1] of 34.7 µM, a TGI [2] of 34.2 µM and a TGI [3] of 41.5 µM. For the same compound, the TGI [4] was 40 µM, the TGI [5] was 33.6 µM and the TGI [6] was greater than 100 µM. It also gave a TGI [7] of 41 µM, a TGI [8] of 51.4 µM and a TGI [9] of 29.6 µM. It also gave a TGI [10] of 31.9 µM, a TGI [11] of 35.4 µM and a TGI [12] of 39.6 µM. For the same compound, the TGI [13] was 38.5 µM, the TGI [14] was greater than 100 µM and the TGI [15] was 57.7 µM. It also gave a TGI [16] of 38.6 µM, a TGI [17] of 73.6 µM and a TGI [18] of 54.5 µM. It also gave a TGI [19] of 62 µM, a TGI [20] of 38.7 µM and a TGI [21] of 59.3 µM. For the same compound, the TGI [22] was 38.8 µM, the TGI [23] was 39.2 µM and the TGI [24] was 27 µM. It also gave a TGI [25] of 32.7 µM, a TGI [26] of 37 µM and a TGI [27] of 54.6 µM. It also gave a TGI [28] of 29.6 µM, a TGI [29] of 29.8 µM and a TGI [30] of 51 µM. The TGI [31] was 77.2 µM, the TGI [32] was 38.3 µM and the TGI [33] was 32.4 µM. It also gave a TGI [34] of 45.6 µM, a TGI [35] of 33.4 µM and a TGI [36] of 39.3 µM. It also gave a TGI [37] of 33.8 µM, a TGI [38] of 30.1 µM and a TGI [39] of 66.7 µM. For the same compound, the TGI [40] was 32.8 µM, the TGI [41] was 36.1 µM and the TGI [42] was 65.4 µM. The TGI [43] was 33.5 µM, the TGI [44] was 97.5 µM and the TGI [45] was 54.5 µM. For the same compound, the TGI [46] was 36.6 µM, the TGI [47] was 54.1 µM and the TGI [48] was 37.7 µM. For the same compound, the TGI [49] was 25.8 µM.
In the case of `O=c1cc(/C=C/c2ccccc2)[nH]c2cc3c(cc12)OCO3`, the TGI [1] is reported as 12.7 µM, the TGI [2] is reported as 9.87 µM and the TGI [3] is reported as 21.4 µM. For the same compound, the TGI [4] was 28.3 µM, the TGI [5] was 22 µM and the TGI [7] was 6.43 µM. The TGI [8] was greater than 100 µM, the TGI [9] was 25 µM and the TGI [50] was 7.47 µM. The TGI [10] was 13.4 µM, the TGI [11] was 8.23 µM and the TGI [12] was 14.5 µM. For the same compound, the TGI [51] was 14.8 µM, the TGI [13] was 8.75 µM and the TGI [52] was 5.58 µM. The TGI [53] was 19.8 µM, the TGI [15] was 17.7 µM and the TGI [16] was 17.1 µM. It also gave a TGI [17] of 21.5 µM, a TGI [18] of 9.18 µM and a TGI [19] of 4.29 µM. The TGI [20] was 6.23 µM, the TGI [21] was 13.7 µM and the GI50 [54] was 2.91 µM. The TGI [54] was 10.8 µM, the TGI [22] was 13.3 µM and the TGI [23] was 10.6 µM. For the same compound, the TGI [25] was 5.38 µM, the GI50 [26] was 2.22 µM and the TGI [26] was 5.82 µM. For the same compound, the TGI [27] was 30.2 µM, the TGI [28] was 14.2 µM and the TGI [29] was 19.9 µM. For the same compound, the TGI [31] was 3.18 µM, the GI50 [32] was 4.27 µM and the TGI [32] was 22 µM. The GI50 [33] was 7.12 µM, the TGI [33] was 30.4 µM and the GI50 [34] was 3 µM. It also gave a TGI [34] of 13.7 µM, a TGI [35] of 4.69 µM and a TGI [36] of 9.11 µM. For the same compound, the TGI [37] was 34.9 µM, the GI50 [38] was 2.17 µM and the TGI [38] was 12.3 µM. For the same compound, the TGI [39] was 15.9 µM, the TGI [40] was 23.9 µM and the TGI [41] was 13.4 µM. For the same compound, the TGI [42] was 40.2 µM, the TGI [43] was 19.2 µM and the TGI [44] was 17.3 µM. The TGI [45] was 29.4 µM, the TGI [46] was 7.18 µM and the TGI [47] was 97.7 µM. It also gave a TGI [48] of 10.1 µM and a TGI [49] of 20.9 µM.
`COc1ccc(COCC[C@H](C)OC2OC(CO[Si](C)(C)C(C)(C)C)C(OC(=O)CCCN=[N+]=[N-])C(OC(=O)CCCN=[N+]=[N-])C2OC(=O)CCCN=[N+]=[N-])cc1` (stereo not given in full) was tested, and the TGI [1] was greater than 100 µM, the TGI [2] was greater than 100 µM and the TGI [3] was greater than 100 µM. The TGI [5] was 68.9 µM, the TGI [6] was greater than 100 µM and the TGI [55] was greater than 100 µM. The TGI [7] was 83.1 µM, the TGI [8] was greater than 100 µM and the TGI [9] was greater than 100 µM. The TGI [50] was greater than 100 µM, the TGI [10] was greater than 100 µM and the TGI [11] was 88.7 µM. It also gave a TGI [56] of 41.5 µM, a TGI [12] greater than 100 µM and a TGI [51] greater than 100 µM. The TGI [13] was greater than 100 µM, the TGI [52] was 62.7 µM and the TGI [53] was greater than 100 µM. For the same compound, the TGI [15] was greater than 100 µM, the TGI [57] was greater than 100 µM and the TGI [16] was greater than 100 µM. For the same compound, the TGI [58] was greater than 100 µM, the TGI [17] was greater than 100 µM and the TGI [18] was greater than 100 µM. It also gave a TGI [19] greater than 100 µM, a TGI [20] greater than 100 µM and a TGI [54] of 89.2 µM. For the same compound, the TGI [22] was greater than 100 µM, the TGI [23] was greater than 100 µM and the TGI [24] was greater than 100 µM. The TGI [25] was 60.9 µM, the TGI [26] was greater than 100 µM and the TGI [27] was greater than 100 µM. The TGI [28] was greater than 100 µM, the TGI [29] was 75.8 µM and the TGI [30] was greater than 100 µM. The TGI [32] was greater than 100 µM, the TGI [33] was greater than 100 µM and the TGI [34] was greater than 100 µM. For the same compound, the TGI [35] was greater than 100 µM, the TGI [36] was greater than 100 µM and the TGI [37] was greater than 100 µM. It also gave a TGI [38] of 25.4 µM, a TGI [39] greater than 100 µM and a TGI [40] greater than 100 µM. It also gave a TGI [42] of 59.9 µM, a TGI [43] greater than 100 µM and a TGI [44] greater than 100 µM. The TGI [45] was greater than 100 µM, the TGI [46] was greater than 100 µM and the TGI [47] was greater than 100 µM. The TGI [48] was greater than 100 µM and the TGI [49] was 66.2 µM.
`CN(C)CCNC(=O)Cn1ccc(=O)c2c([N+](=O)[O-])cccc21` was tested, and the TGI [1] was greater than 100 µM, the TGI [2] was greater than 100 µM and the TGI [3] was greater than 100 µM. The TGI [4] was greater than 100 µM, the TGI [5] was greater than 100 µM and the TGI [6] was greater than 100 µM. It also gave a TGI [55] greater than 100 µM, a TGI [7] greater than 100 µM and a TGI [8] greater than 100 µM. The TGI [9] was greater than 100 µM, the TGI [50] was greater than 100 µM and the TGI [10] was greater than 100 µM. It also gave a TGI [11] greater than 100 µM, a TGI [56] greater than 100 µM and a TGI [12] greater than 100 µM. For the same compound, the TGI [13] was greater than 100 µM, the TGI [52] was greater than 100 µM and the TGI [53] was greater than 100 µM. It also gave a TGI [14] greater than 100 µM, a TGI [15] greater than 100 µM and a TGI [57] greater than 100 µM. It also gave a TGI [16] greater than 100 µM, a TGI [58] greater than 100 µM and a TGI [17] greater than 100 µM. For the same compound, the TGI [18] was greater than 100 µM, the TGI [19] was greater than 100 µM and the TGI [20] was greater than 100 µM. It also gave a TGI [21] greater than 100 µM, a TGI [54] greater than 100 µM and a TGI [22] greater than 100 µM. It also gave a TGI [23] greater than 100 µM, a TGI [24] greater than 100 µM and a TGI [26] greater than 100 µM. The TGI [27] was greater than 100 µM, the TGI [28] was greater than 100 µM and the TGI [29] was greater than 100 µM. It also gave a TGI [30] greater than 100 µM, a TGI [31] greater than 100 µM and a TGI [32] greater than 100 µM. The TGI [33] was greater than 100 µM, the TGI [34] was greater than 100 µM and the TGI [35] was greater than 100 µM. The TGI [36] was greater than 100 µM, the TGI [37] was greater than 100 µM and the TGI [38] was greater than 100 µM. It also gave a TGI [39] greater than 100 µM, a TGI [40] greater than 100 µM and a TGI [41] greater than 100 µM. The TGI [42] was greater than 100 µM, the TGI [59] was greater than 100 µM and the TGI [43] was greater than 100 µM. It also gave a TGI [44] greater than 100 µM, a TGI [45] greater than 100 µM and a TGI [46] greater than 100 µM. It also gave a TGI [47] greater than 100 µM, a TGI [48] greater than 100 µM and a TGI [49] greater than 100 µM.
